Measured values published in patent US8680089B2, “Fused pyridine derivatives” (Xuanzhu Pharma Co., Ltd., priority 2010, dated 2014).
Read-outs that look alike come from different tables or passages of the source.

Columns and labels:
Assay type in all cases: biochemical
DPP-9 = DPP-9 (Homo sapiens, UniProt Q86TI2); assay: Inhibition to DPP-9 measured by a fluorescence assay (DPPIV-Glo)
Experimental: (§1) The preparation of the reaction solution DPPIV-Glo® buffer should be thawed in advance. The freeze-dried […] should be taken out of the refrigerator in advance and left to room temperature. The DPPIV-Glo® substrate was dissolved in 110 μl water, and mixed thoroughly by votex as a stock solution (the concentration is 10 mmol). The […] was added into an ampoule containing 50 mL DPPIV-Glo™ buffer. Then, 100 μl solution containing DPPIV-Glo™ substrate was mixed with 50 mL DPPIV-Glo™ buffer containing a […] to afford the reaction solution, which needs to be stored in a refrigerator at −20° C.
3. The inhibition to DPP-9 was measured by a fluorescence assay:
(§2) All of the compounds were 10-fold diluted by DMSO before the experiment, and each compound needs to be diluted to 8 concentrations. Before the experiment, the solution containing DPP-9 enzyme was incubated with the mixture of compounds for 10 min at RT. And then, the reaction solution was added and incubated for 30 min. The enzyme was not added to the negative control group. The fluorescence signal was assayed after 30 min. All of the compounds were assayed twice.

DPP-8 = DPP-8 (Homo sapiens, UniProt Q6V1X1); assay: Inhibition to DPP-8 measured by a fluorescence assay (DPPIV-Glo); conditions: 111.9 pM DPP-8, pH 7.5, 10 min preincubation at RT, 30 min reaction, 8 concentrations, assayed twice
Experimental: as §1
2. The inhibition to DPP-8 was measured by a fluorescence assay:
as §2, with “DPP-8” for “DPP-9”

DPP-IV = DPP-IV (Homo sapiens, UniProt P27487); assay: Inhibition to DPP-IV measured by a fluorescence assay (DPPIV-Glo); conditions: 66 pM DPP-4, pH 7.5, 10 min preincubation at RT, 30 min reaction, 8 concentrations, assayed twice
Experimental: as §1
1. The inhibition to DPP-IV was measured by a fluorescence assay:
as §2, with “DPP-IV” for “DPP-9”

[1] = 26 pM DPP-9, pH 7.5, 10 min preincubation at RT, 30 min reaction, 8 concentrations, assayed twice, read-out: IC50 DPP-9

DPP-IV, sequence (P27487 whole entry, species assumed): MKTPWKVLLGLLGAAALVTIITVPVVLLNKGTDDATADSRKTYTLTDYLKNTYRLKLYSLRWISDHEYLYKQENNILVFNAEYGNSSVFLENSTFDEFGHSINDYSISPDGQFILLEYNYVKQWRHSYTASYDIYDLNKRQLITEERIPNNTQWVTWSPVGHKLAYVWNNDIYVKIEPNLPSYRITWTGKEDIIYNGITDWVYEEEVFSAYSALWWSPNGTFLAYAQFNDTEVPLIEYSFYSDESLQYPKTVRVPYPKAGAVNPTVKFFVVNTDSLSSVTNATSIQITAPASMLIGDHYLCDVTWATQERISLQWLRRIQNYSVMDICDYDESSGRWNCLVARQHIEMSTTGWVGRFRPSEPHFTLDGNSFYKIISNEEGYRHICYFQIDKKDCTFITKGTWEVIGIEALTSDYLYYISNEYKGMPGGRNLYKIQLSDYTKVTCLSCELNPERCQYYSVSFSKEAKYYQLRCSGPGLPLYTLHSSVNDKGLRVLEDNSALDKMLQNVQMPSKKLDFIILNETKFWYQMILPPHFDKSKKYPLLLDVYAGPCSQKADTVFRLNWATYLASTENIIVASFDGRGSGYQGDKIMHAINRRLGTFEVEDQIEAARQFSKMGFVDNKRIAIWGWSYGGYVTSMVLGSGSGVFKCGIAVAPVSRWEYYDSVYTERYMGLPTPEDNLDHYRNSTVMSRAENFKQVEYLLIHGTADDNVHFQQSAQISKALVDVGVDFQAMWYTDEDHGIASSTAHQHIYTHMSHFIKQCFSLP
DPP-8, sequence (Q6V1X1 whole entry, species assumed): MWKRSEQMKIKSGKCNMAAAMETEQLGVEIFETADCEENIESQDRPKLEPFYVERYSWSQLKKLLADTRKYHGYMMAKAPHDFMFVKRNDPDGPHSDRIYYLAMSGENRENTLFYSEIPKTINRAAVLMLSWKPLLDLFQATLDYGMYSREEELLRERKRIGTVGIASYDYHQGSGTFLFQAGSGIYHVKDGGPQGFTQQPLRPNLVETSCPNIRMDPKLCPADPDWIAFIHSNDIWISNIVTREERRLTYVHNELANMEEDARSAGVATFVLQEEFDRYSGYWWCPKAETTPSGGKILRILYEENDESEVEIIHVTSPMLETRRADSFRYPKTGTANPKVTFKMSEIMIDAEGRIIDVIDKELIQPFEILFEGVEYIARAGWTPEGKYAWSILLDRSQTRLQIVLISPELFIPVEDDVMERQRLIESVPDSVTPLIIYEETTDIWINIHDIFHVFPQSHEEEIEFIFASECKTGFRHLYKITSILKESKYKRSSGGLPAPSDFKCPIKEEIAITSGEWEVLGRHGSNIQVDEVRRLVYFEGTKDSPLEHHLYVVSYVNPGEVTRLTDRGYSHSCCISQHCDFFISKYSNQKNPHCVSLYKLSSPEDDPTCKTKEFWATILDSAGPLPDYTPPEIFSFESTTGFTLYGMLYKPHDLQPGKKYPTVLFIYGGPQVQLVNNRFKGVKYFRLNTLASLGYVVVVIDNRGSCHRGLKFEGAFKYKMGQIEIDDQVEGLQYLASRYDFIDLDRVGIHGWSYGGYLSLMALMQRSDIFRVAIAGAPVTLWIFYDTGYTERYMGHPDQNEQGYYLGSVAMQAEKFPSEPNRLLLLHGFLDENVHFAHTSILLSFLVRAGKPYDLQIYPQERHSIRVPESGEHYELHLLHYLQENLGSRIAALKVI
DPP-9, sequence (Q86TI2 whole entry, species assumed): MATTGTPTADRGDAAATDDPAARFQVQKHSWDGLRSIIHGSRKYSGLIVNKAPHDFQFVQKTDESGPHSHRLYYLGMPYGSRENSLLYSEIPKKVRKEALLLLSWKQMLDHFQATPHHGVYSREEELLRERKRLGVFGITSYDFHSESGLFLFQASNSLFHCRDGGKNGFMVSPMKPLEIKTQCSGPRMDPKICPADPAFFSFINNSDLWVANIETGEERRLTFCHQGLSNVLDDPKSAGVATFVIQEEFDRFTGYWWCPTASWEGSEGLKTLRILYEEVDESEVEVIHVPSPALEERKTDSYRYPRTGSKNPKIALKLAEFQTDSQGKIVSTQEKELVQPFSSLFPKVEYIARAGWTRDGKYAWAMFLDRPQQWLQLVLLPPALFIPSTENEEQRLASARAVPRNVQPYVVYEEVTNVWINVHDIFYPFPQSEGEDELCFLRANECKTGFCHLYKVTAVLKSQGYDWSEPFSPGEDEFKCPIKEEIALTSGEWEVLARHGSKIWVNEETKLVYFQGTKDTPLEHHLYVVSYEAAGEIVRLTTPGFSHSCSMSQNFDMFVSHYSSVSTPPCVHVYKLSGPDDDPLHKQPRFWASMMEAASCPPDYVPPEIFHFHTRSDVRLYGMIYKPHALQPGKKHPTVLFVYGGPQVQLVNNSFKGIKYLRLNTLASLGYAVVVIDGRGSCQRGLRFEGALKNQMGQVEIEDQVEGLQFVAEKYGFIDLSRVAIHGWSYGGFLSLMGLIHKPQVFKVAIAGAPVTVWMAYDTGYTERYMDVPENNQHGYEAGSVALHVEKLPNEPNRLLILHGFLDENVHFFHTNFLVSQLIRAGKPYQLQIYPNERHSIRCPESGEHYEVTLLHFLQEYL

Row | SMILES | IC50 (DPP-9; [1]) | IC50 (DPP-IV) | IC50 (DPP-9) | IC50 (DPP-8)
1 | Cn1c(=O)n(Cc2ccccc2C#N)c2c(N3CCC[C@@H](N)C3)ccnc21 [Compound 1, (R)-2-[[7-(3-aminopiperidin-1-yl)-3-methyl-2-oxo-2,3-dihydro-1H-imidazo[4,5-b]pyridin-1-yl]methyl]benzonitrile] | – | – | > 100 µM | > 100 µM
2 | CC(C)n1c(=O)n(Cc2ccccc2C#N)c2c(N3CCC[C@@H](N)C3)ccnc21 [Compound 2, (R)-2-[[7-(3-aminopiperidin-1-yl)-3-isopropyl-2-oxo-2,3-dihydro-1H-imidazo[4,5-b]pyridin-1-yl]methyl]benzonitrile] | – | – | > 100 µM | > 100 µM
3 | Cn1c(=O)n(Cc2ccccc2F)c2c(N3CCC[C@@H](N)C3)ccnc21 [Compound 3, (R)-1-(2-fluorobenzyl)-7-(3-aminopiperidin-1-yl)-3-methyl-1H-imidazo[4,5-b]pyridin-2(3H)-one] | – | – | > 100 µM | > 100 µM
4 | Cn1c(=O)n(Cc2ccccc2Cl)c2c(N3CCC[C@@H](N)C3)ccnc21 [Compound 5, (R)-1-(2-chlorobenzyl)-7-(3-aminopiperidin-1-yl)-3-methyl-1H-imidazo[4,5-b]pyridine-2(3H)-one] | – | – | > 100 µM | > 100 µM
5 | CN[C@@H]1CCCN(c2ccnc3c2n(Cc2ccccc2C#N)c(=O)n3C)C1 [Compound 6, (R)-2-[[3-methyl-7-[3-(methylamino)piperidin-1-yl]-2-oxo-2,3-dihydro-1H-imidazo[4,5-b]pyridin-1-yl]methyl]benzonitrile] | – | – | > 100 µM | > 100 µM
6 | N#Cc1ccccc1Cn1c(=O)oc2nccc(N3CCC[C@@H](N)C3)c21 [Compound 11, (R)-2-[[7-(3-aminopiperidin-1-yl)-2-oxo-oxazolo[5,4-b]pyridin-1(2H)-yl]methyl]benzonitrile] | – | – | > 100 µM | > 100 µM
7 | Cn1c(=O)n(Cc2ccccc2C#N)c2c(N3CC[C@@H](N)C3)ccnc21 [Compound 12, (R)-2-[[7-(3-aminopyrrolidin-1-yl)-3-methyl-2-oxo-2,3-dihydro-1H-imidazo[4,5-b]pyridin-1-yl]methyl]benzonitrile] | – | – | > 100 µM | > 100 µM
8 | Cn1c(=O)n(Cc2ccccc2C#N)c2c(N3CCCCC(N)C3)ccnc21 (centres unmarked) [Compound 15, 2-[[7-(3-aminohomopiperidin-1-yl)-3-methyl-2-oxo-2,3-dihydro-1H-imidazo[4,5-b]pyridin-1-yl]methyl]benzonitrile] | – | – | > 100 µM | > 100 µM
9 | Cn1c(=O)n(Cc2ccccc2C#N)c2c(N3CCC[C@@H](N)C3)c3ccccc3nc21 [Compound 18, (R)-2-[[9-(3-aminopiperidin-1-yl)-3-methyl-2-oxo-2,3-dihydro-1H-imidazo[4,5-b]quinolin-1-yl]methyl]benzonitrile] | – | – | > 100 µM | > 100 µM
10 | N#Cc1ccccc1Cn1c(=O)[nH]c2nccc(N3CCC[C@@H](N)C3)c21 [Compound 19, (R)-2-[[7-(3-aminopiperidin-1-yl)-2-oxo-2,3-dihydro-1H-imidazo[4,5-b]pyridin-1-yl]methyl]benzonitrile] | – | – | > 100 µM | > 100 µM

Second part, led by results:

Row | IC50 (DPP-9; [1]) | IC50 (DPP-IV) | SMILES | IC50 (DPP-9) | IC50 (DPP-8)
11 | > 100 µM | 0.545 µM | Cn1c(=O)n(Cc2cc(F)ccc2F)c2c(N3CCC[C@@H](N)C3)ccnc21 [Compound 4, (R)-1-(2,5-difluorobenzyl)-7-(3-aminopiperidin-1-yl)-3-methyl-1H-imidazo[4,5-b]pyridine-2(3H)-one] | – | > 100 µM
12 | > 100 µM | 0.0089 µM | Cc1cc(N2CCC[C@@H](N)C2)c2c(n1)n(C)c(=O)n2Cc1ccccc1C#N [Compound 17, (R)-2-[[7-(3-aminopiperidin-1-yl)-3,5-dimethyl-2-oxo-2,3-dihydro-1H-imidazo[4,5-b]pyridin-1-yl]methyl]benzonitrile] | – | > 100 µM
13 | > 100 µM | 0.0112 µM | Cc1cc(N2CC[C@@H](N)C2)c2c(n1)n(C)c(=O)n2Cc1ccccc1C#N [Compound 21, (R)-2-[[7-(3-aminopyrrolidin-1-yl)-3,5-dimethyl-2-oxo-2,3-dihydro-1H-imidazo[4,5-b]pyridin-1-yl]methyl]benzonitrile] | – | > 100 µM
14 | > 100 µM | 0.01 µM | Cn1c(=O)n(Cc2ccccc2C#N)c2c(N3CCC[C@@H](N)C3)cc(Cl)nc21 [Compound 22] | – | > 100 µM
15 | > 100 µM | 0.0229 µM | CN(C)c1cc(N2CCC[C@@H](N)C2)c2c(n1)n(C)c(=O)n2Cc1ccccc1C#N [Compound 23, (R)-2-[[7-(3-aminopiperidin-1-yl)-5-(dimethylamino)-3-methyl-2-oxo-2,3-dihydro-1H-imidazo[4,5-b]pyridin-1-yl]methyl]benzonitrile] | – | > 100 µM
16 | > 100 µM | 0.0193 µM | CCc1cc(N2CCC[C@@H](N)C2)c2c(n1)n(C)c(=O)n2Cc1ccccc1C#N [Compound 25, (R)-2-[[7-(3-aminopiperidin-1-yl)-5-ethyl-3-methyl-2-oxo-2,3-dihydro-1H-imidazo[4,5-b]pyridin-1-yl]methyl]benzonitrile] | – | > 100 µM
17 | > 100 µM | 0.0569 µM | CCn1c(=O)n(Cc2ccccc2C#N)c2c(N3CCC[C@@H](N)C3)cc(C)nc21 [Compound 26, (R)-2-[[7-(3-aminopiperidin-1-yl)-3-ethyl-5-methyl-2-oxo-2,3-dihydro-1H-imidazo[4,5-b]pyridin-1-yl]methyl]benzonitrile] | – | > 100 µM
18 | > 100 µM | 0.0135 µM | Cn1c(=O)n(Cc2ccccc2C#N)c2c(N3CCC[C@@H](N)C3)cc(CO)nc21 [Compound 29, (R)-2-[[7-(3-aminopiperidin-1-yl)-3-methyl-5-hydroxymethyl-2-oxo-2,3-dihydro-1H-imidazo[4,5-b]pyridin-1-yl]methyl]benzonitrile] | – | > 100 µM
19 | > 100 µM | 0.0079 µM | Cn1c(=O)n(Cc2ccccc2C#N)c2c(N3CCC[C@@H](N)C3)cc(C(=O)O)nc21 [Compound 30, (R)-7-(3-aminopiperidin-1-yl)-1-(2-cyanobenzyl)-3-methyl-2-oxo-2,3-dihydro-1H-imidazo[4,5-b]pyridine-5-formylic acid] | – | > 100 µM
20 | > 100 µM | 0.422 µM | Cc1cc(N2CCC[C@@H](NCc3ccccc3C#N)C2)c2c(n1)n(C)c(=O)n2Cc1ccccc1C#N [Compound 31, (R)-7-[3-(2-cyanobenzyl)aminopiperidin-1-yl]-1-(2-cyanobenzyl)-3,5-dimethyl-2-oxo-2,3-dihydro-1H-imidazo[4,5-b]pyridine] | – | > 100 µM
